How the values were obtained:
[1] = tested on: souris Swiss; experiment: Locomotor activity of mice in the Boissier-Simon actimeter (Example 38); assay type: in vivo; details: for Activité locomotrice Variation (%) par rapport aux témoins (100%) pour la dose 10 mg/kg,i.p.: 30 min after administration, beams crossed from 20th to 35th minute; for Activité locomotrice, effect compared with BTCP: 10 mg/kg i.p.
Experimental: Exemple 38 : Mesure de l'activité locomotrice.
L'activité locomotrice de souris Swiss (mâles CD1, 25-30 g, Charles River, St Aubin lès Elbeuf, France) est mesurée dans l'actimètre Boissier-Simon (Apelex, Bagneux, France).
30 minutes après l'administration des composés à tester (10 mg/kg, i.p.), les souris sont introduites dans des cages individuelles en Plexiglass (L = 26 cm, l = 20 cm, h = 10 cm), équipées de deux cellules photoélectriques situées à 1 cm au-dessus du plancher. Chaque cellule est reliée à un compteur électromécanique. "L'activité locomotrice" correspond au nombre de rayons traversés, de la 20ème à la 35ème minute après introduction dans les cages d'actimétrie.

[2] = target: T1, capture de noradrénaline (Rattus norvegicus, UniProt Q63380); experiment: Tritiated noradrenaline uptake by crude synaptosomal preparations of rat hypothalamus (Example 37); assay type: biochemical; details: rat hypothalamus synaptosomes, 50 nM tritiated noradrenaline, 10 min at 37°C; read-out: Capture 3H-NA IC₅₀
T1 construct: préparations synaptosomales brutes d'hypothalamus de rats; from tissue; host or cells: male Sprague-Dawley rat hypothalamus, crude synaptosomal fraction
T1 sequence (Q63380 1-617): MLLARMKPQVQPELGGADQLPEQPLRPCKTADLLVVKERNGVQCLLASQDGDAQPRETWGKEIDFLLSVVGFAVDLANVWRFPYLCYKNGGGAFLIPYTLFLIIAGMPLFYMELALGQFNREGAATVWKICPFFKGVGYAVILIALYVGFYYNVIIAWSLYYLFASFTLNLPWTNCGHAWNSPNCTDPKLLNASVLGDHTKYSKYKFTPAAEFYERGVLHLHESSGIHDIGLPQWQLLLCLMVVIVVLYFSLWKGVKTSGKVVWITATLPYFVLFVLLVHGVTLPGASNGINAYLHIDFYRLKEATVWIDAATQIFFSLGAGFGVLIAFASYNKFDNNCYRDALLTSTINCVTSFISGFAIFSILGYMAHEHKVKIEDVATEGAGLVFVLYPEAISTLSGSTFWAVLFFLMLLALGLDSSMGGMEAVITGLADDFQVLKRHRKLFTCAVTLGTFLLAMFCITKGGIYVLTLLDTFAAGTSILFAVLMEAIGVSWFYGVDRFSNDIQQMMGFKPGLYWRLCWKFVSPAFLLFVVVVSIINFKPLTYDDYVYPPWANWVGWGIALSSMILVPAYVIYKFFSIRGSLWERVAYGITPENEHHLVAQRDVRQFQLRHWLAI
Experimental: Exemple 37 : Mesure de la capture de noradrénaline.
La capture de noradrénaline tritiée (40 Ci/mmole) est évaluée à partir de préparations synaptosomales brutes d'hypothalamus de rats (Sprague-Dawley mâle, 200-300g, Charles River, St Aubin lès Elbeuf, France).
Les animaux sont sacrifiés par décapitation et les cerveaux sont rapidement dégagés. Les hypothalami, disséqués à 0-4°C, sont homogénéisés dans 10 volumes (poids/volume) de saccharose 0,32 M préalablement refroidi, au moyen d'un homogénéiseur type Potter-Elvejhem (clairance 80-130 µm, 800 rpm). Les débris cellulaires et le matériel nucléaire sont éliminés par centrifugation (1000 g, 10 min, 4°C). Le surnageant constitue la fraction synaptosomale brute.
Des aliquots (50 µl) de préparation synaptosomale sont préincubés pendant 5 minutes à 37°C, en présence de pargyline 20 µM, et de concentrations croissantes des composés à tester, dans […] d'un milieu Krebs-Ringer enrichi en glucose (composition en mM : NaCl 103, CaCl₂1, MgCl₂ 1, KH₂PO₄ 1, NaHCO₃ 27, acide ascorbique 0,1, glucose 5,4). A l'issue de cette préincubation, la noradrénaline tritiée (concentration finale 50 nM) est ajoutée sous un volume de 40 µl, et l'incubation est poursuivie à 37°C pendant 10 minutes. La réaction est arrêtée par dilution avec 2 ml de milieu glacé et centrifugation (7000 g, 10 minutes, 4°C). Après lavage du culot de centrifugation dans 1 ml de milieu glacé, l'échantillon est à nouveau centrifugé dans les mêmes conditions. Le culot obtenu est remis en suspension dans 250 µl d'eau distillée par sonication (Sonotrode TC 4C). 100 µl de cette suspension sont utilisés pour la mesure de la radioactivité par scintillation liquide (SL 2000, Kontron intertechniques, Trappes, France) et 50 µl pour la détermination des taux de protéines (selon la méthode de Lowry et al.).
La capture non spécifique est étudiée simultanément à 0°C en présence des différentes concentrations de composé.
La capture spécifique (capture totale - capture à 0°C) est exprimée en fentomoles/mg de protéines.
Pour chaque concentration étudiée la mesure était faite en double, 3 à 5 expériences étant pratiquées à des jours différents (préparations synaptosomales différentes). Pour chaque composé, au moins 4 concentrations ont été étudiées (entre 10⁻⁹ et 10⁻⁶M habituellement).

[3] = tested on: fixation de la (³H)BTCP dans le striatum de souris; experiment: Inhibition of in vivo (3H)BTCP binding in mouse striatum (Example 40); details: mice, compound s.c. 60 min before i.v. (3H)BTCP, sacrifice 30 min later
Experimental: Exemple 40 : Etude de l'inhibition de la fixation "in vivo" de (³H)BTCP chez la souris.
Pour cette étude, on utilise des souris Swiss mâles pesant 20 à 25g. Les souris sont réparties par groupes et alimentées avec de la nourriture standard de laboratoire et de l'eau à volonté, en réalisant des cycles de lumière artificielle de 12h consécutives à partir de 7h du matin. Les expériences sont effectuées entre 10h et 18h. Les mesures de la fixation "in vivo" de la (³H)BTCP sont effectuées comme il a été décrit par Maurice et al, 1989, de la façon suivante.
On injecte aux souris par voie sous-cutanée le composé à tester dans 100µl de solution physiologique pour les composés n^o 4 et n^o 16 et dans 100µl d'un mélange 1:1 en volume de solution physiologique et de DMSO pour le composé n^o 26. 60 min après cette injection on leur injecte dans une veine de la queue (³H)BTCP à une dose de 5µCi dans 100µl d'un mélange de solution physiologique et d'éthanol à 5%. 30min après cette injection, on sacrifie les souris. Les striata de cerveaux sont rapidement disséqués et homogénéisés avec un ultra turrax (IKA Verk) réglage maximum pendant 20s dans 80 volumes d'un tampon Na₂HPO₄, HCl 50mM, pH=7,4 à 4°C. Deux aliquots de […] sont filtrées sous pression réduite sur des filtres GF/B (Whatman) prétraités par de la polyéthylène imine à 0,5% (Aldrich). On rince ensuite les filtres deux fois avec 5ml d'un tampon NaCl 50mM, tris-HCl 10mM, pH=7,4 à 4°C. La radioactivité fixée qui reste sur les filtres, et la radioactivité totale, obtenue à partir des deux aliquots de 200µl d'homogénats sont mesurées dans des flacons de 6ml contenant 3,5ml de ACS (Amersham) avec un spectrophotomètre à scintillation liquide Excel 1410 (LKB). La fixation non spécifique est définie comme la radioactivité présente dans chaque région après prétraitement des animaux avec de la BTCP (40mg/kg dans 100µl de solution saline), injectée par voie sous-cutanée, 60min avant l'injection de (³H)BTCP. Les résultats sont exprimés sous la forme des rapports radioactivité fixée / radioactivité libre (B/F) dans lesquels le taux de (³H)BTCP libre est estimé en soustrayant la radioactivité fixée de la radioactivité totale.

| SMILES | Activité locomotrice Variation (%) par rapport aux témoins (100%) pour la dose 10 mg/kg,i.p. [1] | IC50 [2] [nM] | Activité locomotrice, effect compared with BTCP [1] | ID₅₀ (mg/kg) [3] |
| --- | --- | --- | --- | --- |
| C[C@H]1CC[C@](c2cc3ccccc3s2)(N2CCCCC2)CC1 [composé n^o 20, (benzo(b)thiophényl-2)-1-t-méthyl-4-r-(pipéridino-1)-1 cyclohexane] | +40±22% | 94.3 |  |  |
| BrCC1CCCN(C2(c3cc4ccccc4s3)CCCCC2)C1 (centres unmarked) [composé n^o 10, (benzo(b)thiophényl-2)-1 ((bromométhyl-3 pipéridino)-1)-1 cyclohexane] | +30±19% | 196 ± 31 |  |  |
| CC1CCCN(C2(c3cc4ccccc4s3)CCCCC2)C1 (centres unmarked) [composé n^o 2, (benzo(b)thiophényl-2)-1 ((méthyl-3 pipéridino)-1)-1 cyclohexane] | +160±25% | 40 ± 0.5 | effet supérieur à celui du BTCP |  |
| OC1CCN(C2(c3cc4ccccc4s3)CCCCC2)CC1 [composé 26, (benzo(b)thiophényl-2)-1( (ol-4-pipéridino)-1)-1 cyclohexane] | +252±45% |  |  | 0,56 mg/kg |
| CC1CC(C)CN(C2(c3cc4ccccc4s3)CCCCC2)C1 (centres unmarked) [composé n^o 6, (benzo(b)thiophényl-2)-1 ((diméthyl-3,5 pipéridino)-1)-1 cyclohexane] | +84±12% | 12.5 |  |  |
| c1ccc2sc(C3(N4CCCCC4)CCCCC3)cc2c1 [BTCP, (benzo(b)thiophényl-2)-1 (pipéridino -1) cyclohexane, reference compound] | +122±12% | 18.3 |  | 4,98 mg/kg |
| c1ccc2oc(C3(N4CCCCC4)CCCCC3)cc2c1 [composé n^o 4, (benzo(b)furannyl-2)-1 (pipéridino-1)-1 cyclohexane] | +169±19% | 22.2 | effet supérieur à celui du BTCP | 7,78 mg/kg |
| C[C@H]1CC[C@@](c2cc3ccccc3s2)(N2CCCCC2)CC1 [composé n^o 21, (benzo(b)thiophényl-2)-1 c-méthyl-4-r-(pipéridino-1)-1 cyclohexane] | +175±27% | 16.5 | effet supérieur à celui du BTCP |  |
| CCCN(CCC)C1(c2cc3ccccc3s2)CCCCC1 [composé no 3, (benzo(b)thiophényl-2)-1 (dipropylamino-1)-1 cyclohexane] | +53±23% | 22.7 |  |  |

Source: EP0406111A1, “Substituted arylamines and heteroarylamines, process for their preparation and pharmaceutical composition containing them” (SOCIETE DE CONSEILS DE […] D'APPLICATIONS SCIENTIFIQUES …, priority 1989, dated 1991)
